Laboratory results published in patent publication US10821148B2, “Pharmaceutical composition for treating or alleviating an autoimmune disease and/or complication thereof and/or nephritis and method for treating or alleviating an autoimmune disease and/or complication thereof and/or nephritis” (Industrial Technology Research Institute, priority 2016, dated 2020).
Like-named read-outs stand apart in the source and are kept apart here.

Legend:
IL-6 = assay: Lipopolysaccharide (LPS)-induced acute inflammation in mice, IL-6; type: in vivo; settings: plasma, 1.5 hours after 1 mg/kg LPS IP, BALB/c mice
From the text: (§1) 5. Method 5: Model of Lipopolysaccharide (LPS)-Induced Acute Inflammation in Mice
(§2) 6-8 weeks old male BALB/c mice were purchased from BioLASCO Taiwan Co., Ltd. On the day that the animals entered, the mice were marked, separated into cages, and weighed. Then, the mice were quarantined for one week, and the breeding conditions meet the standards of the National Laboratory Animal Center (Taiwan). During the quarantine, the motility and environmental adaptability of the mice were observed. If the body weights of the mice increased normally, the mice were moved to the breeding region to await the implementation of the experiment.
(§3) Illumination for the breeding region was automatically controlled for 12-hr light-dark cycle, and the temperature was controlled at 23±2° C. The animals were free to obtain sufficient food and water. This strain of animals has had abundant basic reference information and data, and can be suitable for a functional evaluation test for inflammation, and the experimental method had been approved by Institutional Animal Care and Use Committees (IACUC) in the Industrial Technology Research Institute.
(§4) 5.2 Treatment of the Mice
(§5) Before the experiment, the mice were weighed and grouped to make the average body weight for each group has no obvious difference, and the clinical symptoms of the mice were recorded. Two to four hours before the experiment, the mice were fasting, but water was still regularly provided. At a specific time before or after being stimulated by lipopolysaccharides (LPS), the mice were administered a drug to be tested through oral administration, intraperitoneal injection (IP) or intravenous injection (IV), and after the administration, the clinical symptoms of the mice were observed and recorded. […] The mice were stimulated by 1 mg/kg lipopolysaccharides (0.25 ml/mouse) through intraperitoneal injection (IP), and the clinical symptoms of the mice were observed and recorded. […]
TNF-α, IL-6 and MCP-1 secretion amounts in the plasma were analyzed according to the analysis steps of Duoset® ELISA kit, and the steps are summarized as follows: […]

[1] = system: IL-17 secretion in peripheral blood leukocytes (PBLs); assay: Anti-IL-17 secretion screening, peripheral blood leukocyte (PBL) platform; type: cell-based; settings: rat PBL, PMA + ionomycin, 48 hours
Description: 2. Method 2: Anti-IL-17 Secretion Drug Screening Through a Peripheral Blood Leukocyte (PBL) Platform
Blood of SD rat was obtained through saphenous vein sampling. The rat blood was placed in a centrifuge tube containing EDTA (final concentration was 2 mg/ml) and mixed well, and then 4-fold volume of ACK buffer was added to the centrifuge tube to lyse red blood cells. The above-mentioned centrifuge tube was placed in a 37° C. water bath for 5 minutes, and 4 folds volume of PBS buffer was added to the centrifuge tube and the centrifuge tube was centrifuged at a speed of 3000 rpm for 5 minutes, and the supernatant was removed. After that, the steps for lysing red blood cells were repeated twice and an appropriate volume of cell culture medium was added to the centrifuge.
The cells was implanted to a 96-well plate (2×10^5 cells/well), and an appropriate concentration of a drug to be tested was added therein (10 μl/well) and evenly mixed. Next, the 96-well plate was placed in an incubator at 37° C. with 5% CO2 for 1 hour. After that, the stimuli, phorbol-12-myristate-13-acetate (PMA) (final concentration was 30 ng/ml), and ionomycin (final concentration was 1 μg/ml) were added to the 96-well plate. After being evenly mixed, the 96-well plate was placed in an incubator for 48 hours.
After 48 hours of culturing, the 96-well plate was centrifuged at 3000 rpm for 5 minutes to let the cells precipitate and the supernatant (cell-cultured medium) was transferred to a new 96-well plate (about 155 μl/well).
After the cell-cultured medium in the new 96 well plate was 2-4 fold diluted, a rat IL-17 ELISA kit (eBioscience, 88-7170) was used to determine IL-17 content thereof.
For both of cell viability assay and IL-17 content assay, the result of the group adding phorbol-12-myristate-13-acetate (PMA) and ionomycin was set as 100%, and secretion of IL-17 was shown by percentage.

[2] = system: IL-17 secretion in EL4 cells; assay: Anti-IL-17 secretion screening, platform of EL4 cells; type: cell-based, mouse; settings: PMA + ionomycin, 18 hours
Description: 8. Method 8: Anti-IL-17 Secretion Drug Screening Through a Platform of EL4 Cells
The EL4 cells were seeded into a 96-well plate (1×10^5 cells/well), and an appropriate concentration of a drug to be tested was added therein (10 μl/well) and evenly mixed.
Next, the 96-well plate was placed in an incubator at 37° C. with 5% CO2 for 1 hour. After that, the stimuli, phorbol-12-myristate-13-acetate (PMA) (final concentration was 10 ng/ml), and ionomycin (final concentration was 5 ng/ml) were added to the 96-well plate. After being evenly mixed, the 96-well plate was placed in an incubator for 18 hours.
After 18 hours of culturing, the 96-well plate was centrifuged at 1200 rpm for 5 minutes to let the cells precipitate and the supernatant (cell-cultured medium) was transferred to a new 96-well plate (about 155 μl/well).
The cell-cultured medium in the new 96-well plate was 2-4 fold diluted and the IL-17 concentration was determined by mouse IL-17 ELISA kit (R&D, DY421E).
For both of cell viability and IL-17 content assays, the results of the group with phorbol-12-myristate-13-acetate (PMA) and ionomycin were set as 100%, and the secretion of IL-17 was expressed by percentage.

MCP-1 = assay: Lipopolysaccharide (LPS)-induced acute inflammation in mice, MCP-1; type: in vivo; settings: plasma, 1.5 hours after 1 mg/kg LPS IP, BALB/c mice
From the text: as §1, §2, §3, §4
Before the experiment, the mice were weighed and grouped to make the average body weight for each group has no obvious difference, and the clinical symptoms of the mice were recorded. Two to four hours before the experiment, the mice were fasting, but water was still regularly provided. At a specific time before or after being stimulated by lipopolysaccharides (LPS), the mice were administered a drug to be tested through oral administration, intraperitoneal injection (IP) or intravenous injection (IV), and after the administration, the clinical symptoms of the mice were observed and recorded. The mice of the control group were administered the same volume of solvent. The mice were stimulated by 1 mg/kg lipopolysaccharides (0.25 ml/mouse) through intraperitoneal injection (IP), and the clinical symptoms of the mice were observed and recorded.
After being stimulated by lipopolysaccharides for 1.5 hours, the mice were euthanized with excess CO2, and then whole blood of the mice was obtained through intra-cardiac puncture.
The whole blood of the mice was centrifuged at 6000 rpm at 4° C. for 10 minutes. After that, plasma was collected, and determinations of TNF-α, IL-6 and MCP-1 secretion amounts in the plasma were performed.
5.3 Determinations of TNF-α, IL-6 and MCP-1 Secretion Amounts
TNF-α, IL-6 and MCP-1 secretion amounts in the plasma were analyzed according to the analysis steps of Duoset® ELISA kit, and the steps are summarized as follows:
At room temperature, a capture antibody mixture solution was added to an ELISA 96 well plate (100 μl/well) to cover the surface of the ELISA 96-well plate. […]

TNF-α = assay: Lipopolysaccharide (LPS)-induced acute inflammation in mice, TNF-α; type: in vivo; settings: plasma, 1.5 hours after 1 mg/kg LPS IP, BALB/c mice
From the text: as §1
as §2, with “experiment. […]” for “experiment.”
as §5, with “Two to four hours before the experiment, the mice were fasting, but water was still regularly provided.” left out

NZBWF1/J mice = type: in vivo; settings: for Survival rate (%): 50 mg/kg, NZBWF1/J mice
From the text: 6. Method 6: NZBWF Autoimmune Animal Model for Systemic Lupus Erythematosus (SLE)
NZBWF1/J female mice were purchased from The Jackson Laboratory, U.S.A, and after animal quarantine, the mice were fed to an appropriate age (about 16 to 25 weeks old).
Before the experiment, mice were randomly grouped according to the antibody to double stranded DNA (dsDNA) value of sera, then the mice were started to administrate test articles. Mice were administrated 5 days a week, and after 10-18 weeks of continuous administration, the mice were sacrificed. During the administration, body weight change was recorded every week, mice urine were collected every 1 to 2 week by gently pressing the abdomens of the mice and the urinary protein content (mg/dl) was determined by test strips and a protein quantitative kit.
After the experiment was completed, the urine was collected and the whole blood of the mice was obtained through intra-cardiac puncture. After that, kidneys of the mice were exteriorized and weighed. The appearance and pathological changes of kidneys were recorded, and the kidneys were preserved in 10% neutral formalin for pathological examinations. The pathological score was determined according to the literature, Shackelford et al. Toxicol. Pathol. 30: 93-96, and shown by a score of 0 to 5: a score of 0 represents not present; a score of 1 represents minimal (<1%); a score of 2 represents slight (1-25%); a score of 3 represents moderate (26-50%); a score of 4 represents moderate/severe (51-75%), and a score of 5 represents severe (76-100%).
6.2 Determination of Protein Content in Urine
The abdomen (bladder) of the mouse was gently pressed every 1 to 2 week to make the mouse urinate and the urine was collected in a 1.5 ml centrifuge tube, the protein content (mg/dl) in the urine was determined by urine test strip. The test strip was moistened with the urine and stood for 1 minute, and the protein content was determined by the color shown by the test strip. […] If the color shown by the test strip is between two color regions, the urinary protein content is determined by the mean of the values represented by the two regions. […]
The contents of blood urea nitrogen (BUN) and creatinine (CRE) in the serum were determined by FUJI DRI-CHEM 4000i biochemistry analyzer, and the steps are summarized as follows:
Before the experiment, the urea nitrogen and creatinine test strips and the serum to be tested were placed at room temperature to back to room temperature. After that, according to the instructions of the analyzer, 10 μl of serum was added to the central portion of the test strip (if the value exceeded the detectable range, the serum was appropriately diluted with sterilized water), and then determined. […]

| Compound | production of the inflammatory factor IL-6 (IL-6) | IL-17 inhibition IC50, peripheral blood leukocyte (PBL) [1] [µg/mL] | IL-17 inhibition IC50, EL4 cells [2] [µg/mL] | production of the inflammatory factor MCP-1 (MCP-1) | production of the inflammatory factor TNF-α (TNF-α) | also measured |
| --- | --- | --- | --- | --- | --- | --- |
| COc1c(CC=C(C)C)c(C=O)cc2c1[nH]c1ccccc12 [F3m, indizoline] | capable of significantly inhibiting the production of the inflammatory factor, IL-6 | 2.4 | 2.8 | capable of significantly inhibiting the production of the inflammatory factor, MCP-1 |  |  |
| CC(C)=CCCC(C)=CCOc1c2occc2cc2ccc(=O)oc12 [F4m, 8-geranyloxypsoralen] | capable of significantly inhibiting the production of the inflammatory factor, IL-6 | 4.3 | 15.9 | capable of significantly inhibiting the production of the inflammatory factor, MCP-1 | capable of significantly inhibiting the production of the inflammatory factor, TNF-α | survival rate of NZBWF1/J mice (in words) (NZBWF1/J mice; concluded from HE-07-Fr4 (more than 80% of F4m), Table 10): capable of effectively improving the survival rate of NZBWF1/J mice |
| CC(C)=CCOc1c2occc2cc2ccc(=O)oc12 [F5m, imperatorin] |  |  |  | capable of significantly inhibiting the production of the inflammatory factor, MCP-1 | capable of significantly inhibiting the production of the inflammatory factor, TNF-α | IC50 ([1]; Leukocyte, read-out: IL-17 inhibition IC50, peripheral blood leukocyte (PBL)): 20.5 µg/mL; IC50 ([2]; Mus musculus, read-out: IL-17 inhibition IC50, EL4 cells): 45 µg/mL |
| CC1(C)O[C@@H]1COc1c2occc2cc2ccc(=O)oc12 [F7m, prangenin] |  | 28.7 | 47.2 |  |  |  |
| O=P1(N(CCCl)CCCl)NCCCO1 (centres unmarked) [cyclophosphamide] |  |  |  |  |  | Survival rate (%) (NZBWF1/J mice; Table 4 study): 100%; Survival rate (%) (NZBWF1/J mice; Table 8 study): 100%; Survival rate (%) (NZBWF1/J mice; Table 10 study, 12 weeks): 100% |
| ζ-clausenamide [F6m] | capable of significantly inhibiting the production of the inflammatory factor, IL-6 | 3.0 | 5.1 | capable of significantly inhibiting the production of the inflammatory factor, MCP-1 |  |  |
